“Also recorded” adds a separate entry of the source.
How the values were obtained:
Type in all cases: in vivo, human
[1] = system: patients with lipin-1 disease; assay: Six-minute walk test (physical maximum capacities) in patients treated by Plaquenil
Source text: (§1) We treated in 2016 two patients (P1, P2) with lipin-1 disease by hydroxychloroquine sulphate (plaquenil®) and two patients (P3, P4) with dantrolene sodium after obtaining the authorization by the CPP of Paris Descarte University (Comité pour la protection des personnes). Moreover the patient (P5) has been treated for one month by plaquenil® because of their cardiac dysfunction, their fatigability and their sleep disorders. Indeed we think that plaquenil® works well on the two patients treated (P1, P2) and P5's state was considered sufficiently serious to propose it. Plaquenil® was given at a dose of 6 mg/Kg/day into 1 intake (dose usually given in Lupus disease) to P1, P2 and P5.
(§2) Patient 1 corrected their clinical muscle phenotype (Table 1). Physical maximum capacities were measured using six-minute walk (TC6′), Short-Form life quality by using Questionary (SF-36) to assess QOL for parent and for patient, and a self-assessment pain scale (EVA). […] Since then they have resumed treatment.

[2] = system: patients with lipin-1 disease; assay: Life quality questionnary PESDQL children
Source text: as §1, §2

[3] = system: patients with lipin-1 disease; assay: Life quality questionnary PESDQL parent
Source text: as §1, §2

[4] = system: patients with lipin-1 disease; assay: Self-assessment pain scale (EVA)
Source text: as §1, §2

[5] = system: IL-6; assay: IL-6 secretion in serum measured by ELISA (serum inflammatory profile); details: for IL-6 concentration in serum: lipin-1 deficient patients
Procedure: FIG. 1. Inflammatory profile in serum of lipin-1 deficient patients in vivo. Above: IL-6 secretion in serum was measured by ELISA.
as §1
(§3) Both patients 1 and 2 treated in vivo with Plaquenil® normalized their serum inflammatory profile in one month after the start of treatment (FIG. 1). IL-6 secretion increased in plasma when the two patients stopped their treatment (FIG. 1). The accumulation of mtDNA in plasma of the two patients before treatment decreases under treatment by Plaquenil® (FIG. 2). After Plaquenil® was stopped, the accumulation of mtDNA reappeared, then normalized when treatment was resumed. We observe a correlation between variations of IL-6 and mtDNA accumulation levels, and with the compliance of the treatment.

[6] = system: mitochondrial DNA (mtDNA); assay: Quantity of mitochondrial DNA (qPCR) in plasma; details: two patients (P1, P2)
Source text: FIG. 2. Quantity of mitochondrial DNA (qPCR) in plasma of two patients.
as §1, §3

[7] = system: Creatine kinase (CK); assay: Serum Creatine kinase (CK) level
Source text: as §1, §3, §2

[8] = system: patients with lipin-1 disease; assay: Clinical follow-up: rhabdomyolysis episodes, muscle phenotype and muscle pain
Source text: as §1, §3, §2

[9] = the two patients, treatment resumed, winter 2016-2017

CCN(CCO)CCCC(C)Nc1ccnc2cc(Cl)ccc12 (stereo not shown) [Plaquenil®, hydroxychloroquine sulphate]
Six-minute walk test (normal 560-740) ([1]; patient P1, M 2 of treatment, 6 mg/Kg/day, M 0 before treatment 450 m): P1: 540 m | Six-minute walk test (normal 560-740) ([1]; patient P1, M 5 of treatment, M 0 450 m): P1: 520 m | Six-minute walk test (normal 560-740) ([1]; patient P1, M 9, after M 6-M 8 interruption of treatment, M 0 450 m): P1: 539 m | Six-minute walk test (normal 560-740) ([1]; patient P1, M 16, treatment resumed, M 0 450 m): P1: 530 | Six-minute walk test (normal 560-740) ([1]; patient P2, M 2 of treatment, 6 mg/Kg/day, M 0 before treatment 510 m): P2: 550 m | Six-minute walk test (normal 560-740) ([1]; patient P2, M 5 of treatment, M 0 510 m): P2: 595 m | Six-minute walk test (normal 560-740) ([1]; patient P2, M 9, after M 6-M 8 interruption of treatment, M 0 510 m): P2: 587 m | Six-minute walk test (normal 560-740) ([1]; patient P2, M 16, treatment resumed, M 0 510 m): P2: 590 | Questionnary (0: very well - 92: very bad) PESDQL children ([2]; patient P1, M 2 of treatment, M 0 before treatment 26): P1: 12 | Questionnary (0: very well - 92: very bad) PESDQL children ([2]; patient P1, M 5 of treatment, M 0 26): P1: 11 | Questionnary (0: very well - 92: very bad) PESDQL children ([2]; patient P1, M 9, after M 6-M 8 interruption of treatment, M 0 26): P1: 38 | Questionnary (0: very well - 92: very bad) PESDQL children ([2]; patient P1, M 16, treatment resumed, M 0 26): P1: 8 | Questionnary (0: very well - 92: very bad) PESDQL children ([2]; patient P2, M 2 of treatment, M 0 before treatment 45): P2: 32 | Questionnary (0: very well - 92: very bad) PESDQL children ([2]; patient P2, M 5 of treatment, M 0 45): P2: 35 | Questionnary (0: very well - 92: very bad) PESDQL children ([2]; patient P2, M 9, after M 6-M 8 interruption of treatment, M 0 45): P2: 47 | Questionnary (0: very well - 92: very bad) PESDQL children ([2]; patient P2, M 16, treatment resumed, M 0 45): P2: 30 | Questionnary PESDQL parent (0: very well - 92: very bad) ([3]; patient P1, M 2 of treatment, M 0 before treatment 30): P1: 22 | Questionnary PESDQL parent (0: very well - 92: very bad) ([3]; patient P1, M 5 of treatment, M 0 30): P1: 12 | Questionnary PESDQL parent (0: very well - 92: very bad) ([3]; patient P1, M 9, after M 6-M 8 interruption of treatment, M 0 30): P1: 31 | Questionnary PESDQL parent (0: very well - 92: very bad) ([3]; patient P1, M 16, treatment resumed, M 0 30): P1: 20 | Questionnary PESDQL parent (0: very well - 92: very bad) ([3]; patient P2, M 2 of treatment, M 0 before treatment 40): P2: 42 | Questionnary PESDQL parent (0: very well - 92: very bad) ([3]; patient P2, M 5 of treatment, M 0 40): P2: 33 | Questionnary PESDQL parent (0: very well - 92: very bad) ([3]; patient P2, M 9, after M 6-M 8 interruption of treatment, M 0 40): P2: 50 | Questionnary PESDQL parent (0: very well - 92: very bad) ([3]; patient P2, M 16, treatment resumed, M 0 40): P2: 35 | Pain Evaluation (EVA) (4: not painful - 40: very painful) ([4]; patient P1, M 2 of treatment, M 0 before treatment 24): P1: 16 | Pain Evaluation (EVA) (4: not painful - 40: very painful) ([4]; patient P1, M 5 of treatment, M 0 24): P1: 0 | Pain Evaluation (EVA) (4: not painful - 40: very painful) ([4]; patient P1, M 9, after M 6-M 8 interruption of treatment, M 0 24): P1: 4 | Pain Evaluation (EVA) (4: not painful - 40: very painful) ([4]; patient P1, M 16, treatment resumed, M 0 24): P1: 0 | Pain Evaluation (EVA) (4: not painful - 40: very painful) ([4]; patient P2, M 2 of treatment, M 0 before treatment 18): P2: 12 | Pain Evaluation (EVA) (4: not painful - 40: very painful) ([4]; patient P2, M 5 of treatment, M 0 18): P2: 0 | Pain Evaluation (EVA) (4: not painful - 40: very painful) ([4]; patient P2, M 9, after M 6-M 8 interruption of treatment, M 0 18): P2: 16 | Pain Evaluation (EVA) (4: not painful - 40: very painful) ([4]; patient P2, M 16, treatment resumed, M 0 18): P2: 0 | IL-6 concentration in serum ([5]; under treatment): decreases | IL-6 concentration in serum ([5]; when the treatment is resumed): decreases again | serum inflammatory profile ([5]; patients 1 and 2, one month after the start of treatment, 6 mg/Kg/day): normalized | IL-6 secretion (serum/plasma) ([5]; the two patients, after interruption of treatment): increased | accumulation of mtDNA in plasma ([6]; after treatment was stopped): reappeared; also recorded: increases | accumulation of mtDNA in plasma ([6]; under treatment versus before treatment): decreases | accumulation of mtDNA in plasma ([6]; when treatment was resumed): normalized; also recorded: decreases again | CK ([7]; patient 1, rhabdomyolysis after treatment was stopped): 160 000 U/L | CK ([7]; patient 2, rhabdomyolysis after treatment was stopped): 300 000 U/L | level of serum Creatine kinase (CK) ([7]; patients 1 and 2, under treatment): decreased | clinical muscle phenotype ([8]; Patient 1, under treatment): corrected | pain ([8]; patient 2, under treatment): disappeared | walking ability ([8]; patient 2, under treatment): did not improve markedly | new episode of rhabdomyolysis ([8]; patients 1 and 2, during 6 months of treatment): did not have any new episode of rhabdomyolysis | muscle pain [8, 9]: did not have muscle pain | rhabdomyolysis [8, 9]: did not do rhabdomyolysis | rhabdomyolysis after stopping treatment ([8]; the two patients, treatment stopped after 6 months (lack of compliance), hospitalized in intensive care): immediately underwent extensive rhabdomyolysis

From patent publication US11473145B2, “Methods for determining whether a patient suffering from rhabdomyolysis achieves a response with a TLR9 antagonist” (INSERM (INSTITUT NATIONAL DE LA SANTÉ ET DE LA RECHERCHE …, priority 2017, dated 2022)
